# Results published in patent US6972288B1, “4-amino-quinazoline and quinoline derivatives having an inhibitory effect on signal transduction mediated by tyrosine kinases” (Boehringer Ingelheim Pharma KG, priority 1999, dated 2005).
# pIC50: −log10 of the molar value.
# Target: T1, human EGF-R (Homo sapiens, UniProt P00533)
# T1 construct: expressed in transfected cells; host or cells: F/L-HERc cells, derived from the murine IL-3-dependent line FDC-P1 ('FDC-PI' [sic]); retroviral vector LXSN, packaging line GP+E86
# Assay: Inhibition of EGF-dependent proliferation of F/L-HERc cells (Cell Titer 96 AQueous assay)
# Assay type: cell-based
# Settings: F/L-HERc cells (murine IL-3-dependent line expressing human EGF-R), stimulated with EGF 20 ng/ml, 48 hours at 37° C.
# Source text: A cell line of murine origin dependent on interleukin-3 (IL-3) which was genetically modified to express functional human EGF-R was used here. The proliferation of these cells known as F/L-HERc can therefore be stimulated either by murine IL-3 or by EGF (cf. von Rüden, T. et al. in EMBO J. 7, 2749-2756 (1988) and Pierce, J. H. et al. in Science 239. 628-631 (1988)).
# The starting material used for the F/L-HERc cells was the cell line FDC-PI, the production of which has been described by Dexter, T. M. et al, in J. Exp. Med. 152, 1036-1047 (1980). alternatively, however, other growth-factor-dependent cells may also be used (cf. for example Pierce, J. H. et al. in Science 239, 628-631 (1988), Shibuya, H. et al. in Cell 70, 57-67 (1992) and alexander, W. S. et al. in EMBO J. 10, 3683-3691 (1991)). For expressing the human EGF-R cDNA (cf. Ullrich, A. et al. in Nature 309, 418-425 (1984)) recombinant retroviruses were used as described by von Rüden, T. et al., EMBO J. 7, 2749-2756 (1988), except that the retroviral vector LXSN (cf. Miller, A. D. et al. in BioTechniques 1, 980-990 (1989)) was used for the expression of the EGF-R cDNA and the line GP+E86 (cf, Markowitz, D, et al. in J. Virol. 62, 1120-1124 (1988)) was used as the packaging cell.
# The test was performed as follows: • F/L-HERC cells were cultivated in RPMI/1640 medium (BioWhittaker), supplemented with 10% foetal calf serum (FCS, Boehringer Mannheim). 2 mM glutamine (BioWhittaker), standard antibiotics and 20 ng/ml of human EGF (Promega), at 37° C. and 5% CO2. In order to investigate the inhibitory activity of the compounds according to the invention, 1.5×10^4 cells per well were cultivated in triplicate in 96-well plates in the above medium ([…]), the cell proliferation being stimulated with either EGF (20 ng/ml) or murine IL-3. The IL-3 used was obtained from culture supernatants of the cell line X63/0 mIL-3 (cf. Karasuyama, 4. et al. in Eur. J. Immunol. 18, 97-104 (19881). The compounds according to the invention were dissolved in 100% dimethylsulphoxide (DMSO) and added to the cultures in various dilutions, the maximum DMSO concentration being 1%. The cultures were incubated for 48 hours at 37° C.
# In order to determine the inhibitory activity of the compounds according to the invention the relative cell number was measured in O.D. units using the Cell Titer 96™ AQueous Non-Radioactive Cell Proliferation Assay (Promega). The relative cell number was calculated as a percentage of the control (F/LHERc cells without inhibitor) and the concentration of active substance which inhibits the proliferation of the cells by 50% (IC50) was derived therefrom.
# T1 sequence (P00533 25-1210): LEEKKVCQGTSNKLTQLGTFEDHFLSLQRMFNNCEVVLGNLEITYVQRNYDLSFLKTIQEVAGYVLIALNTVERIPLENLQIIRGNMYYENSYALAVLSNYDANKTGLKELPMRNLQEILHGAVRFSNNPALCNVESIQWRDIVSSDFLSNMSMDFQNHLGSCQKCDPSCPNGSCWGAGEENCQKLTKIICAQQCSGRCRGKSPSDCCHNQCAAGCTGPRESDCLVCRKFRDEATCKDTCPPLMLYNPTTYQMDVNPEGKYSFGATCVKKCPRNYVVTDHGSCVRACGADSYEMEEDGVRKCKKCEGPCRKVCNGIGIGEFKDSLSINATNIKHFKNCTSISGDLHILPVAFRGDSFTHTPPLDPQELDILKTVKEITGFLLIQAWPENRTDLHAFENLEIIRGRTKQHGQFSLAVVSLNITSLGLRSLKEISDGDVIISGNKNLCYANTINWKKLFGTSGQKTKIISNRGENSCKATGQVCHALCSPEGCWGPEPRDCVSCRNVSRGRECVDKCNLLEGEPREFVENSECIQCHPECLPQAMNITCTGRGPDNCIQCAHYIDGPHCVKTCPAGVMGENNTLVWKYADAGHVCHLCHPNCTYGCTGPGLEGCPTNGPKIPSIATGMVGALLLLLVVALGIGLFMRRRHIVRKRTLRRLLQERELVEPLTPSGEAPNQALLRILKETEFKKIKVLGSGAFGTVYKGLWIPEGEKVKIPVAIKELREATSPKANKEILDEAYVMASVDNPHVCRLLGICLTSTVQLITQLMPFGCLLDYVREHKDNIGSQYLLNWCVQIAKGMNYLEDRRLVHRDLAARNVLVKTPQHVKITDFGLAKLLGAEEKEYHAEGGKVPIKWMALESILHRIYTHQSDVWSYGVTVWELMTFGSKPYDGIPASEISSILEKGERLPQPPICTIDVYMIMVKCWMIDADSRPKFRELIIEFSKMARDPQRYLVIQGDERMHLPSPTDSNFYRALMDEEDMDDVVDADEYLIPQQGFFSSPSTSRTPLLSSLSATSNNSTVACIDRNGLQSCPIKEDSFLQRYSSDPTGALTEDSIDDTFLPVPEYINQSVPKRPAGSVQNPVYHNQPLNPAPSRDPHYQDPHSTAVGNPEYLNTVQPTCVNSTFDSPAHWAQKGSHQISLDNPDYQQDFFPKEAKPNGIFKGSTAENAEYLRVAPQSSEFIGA
row,SMILES,pIC50
1,"C=CC(=O)Nc1cc2c(Nc3cccc(Br)c3)ncnc2cc1OCCCN1CCN(CP(=O)(OCC)OCC)CC1 [1(10), 4-[(3-bromophenyl)amino]-7-(3-{4-[(diethoxyphosphoryl)-methyl]-piperazin-1-yl}propyloxy)-6-[(vinylcarbonyl)amino]-quinazoline]",7.68
2,"CCOP(=O)(CN(C)CC=CC(=O)Nc1cc2c(Nc3cccc(Br)c3)ncnc2cc1OC)OCC [2(4), 4-[(3-bromophenyl)amino]-6-[(4-{N-[(diethoxyphosphoryl)methyl]-N-methylamino}-1-oxo-2-buten-1-yl)amino]-7-methoxy-quinazoline]",8.17
3,"CCOC(=O)CN(C)CC=CC(=O)Nc1ccc2ncc(C#N)c(Nc3cccc(Br)c3)c2c1 [5(12), 4-[(3-bromophenyl)amino]-3-cyano-6-[(4-{N-[(ethoxycarbonyl)methyl]-N-methylamino}-1-oxo-2-buten-1-yl)amino]-quinoline]",7.74
4,CCOC(=O)CN1CCN(CC=CC(=O)Nc2cc3c(Nc4ccc(F)c(Cl)c4)ncnc3cc2OCC2CC2)CC1 [5(18)],8.13
5,"O=C(C=CCN1CCOC(=O)C1)Nc1cc2c(Nc3ccc(F)c(Cl)c3)ncnc2cc1OCC1CC1 [5(25), 4-[(3-chloro-4-fluorophenyl)amino]-6-{[4-(2-oxo-morpholin-4-yl)-1-oxo-2-buten-1-yl]amino}-7-cyclopropylmethoxy-quinazoline]",7.13
6,"CCOC(=O)CN1CCN(CC=CC(=O)Nc2cc3c(Nc4ccc(F)c(Cl)c4)ncnc3cc2OC2CCC2)CC1 [5(29), 4-[(3-chloro-4-fluorophenyl)amino]-6-[(4-{4-[(ethoxycarbonyl)methyl]-piperazin-1-yl)-1-oxo-2-buten-1-yl}amino]-7-cyclobutyloxy-quinazoline]",8.72
7,COC(=O)[C@@H]1CCCN1CC=CC(=O)Nc1cc2c(Nc3ccc(F)c(Cl)c3)ncnc2cc1OCC1CC1 [5(36)],8.52

# Next, values leading:
row,pIC50,SMILES
1,7.82,"C=CC(=O)Nc1cc2c(Nc3cccc(Br)c3)ncnc2cc1OCCCN1CCN(CCCC(=O)OCC)CC1 [1(4), 4-[(3-bromophenyl)amino]-7-(3-{4-[3-(ethoxycarbonyl)propyl]-piperazin-1-yl}propyloxy)-6-[(vinylcarbonyl)amino]-quinazoline]"
2,7.82,"C=CC(=O)Nc1cc2c(Nc3cccc(Br)c3)ncnc2cc1OC1CCN(CC(=O)OCC)CC1 [1(6), 4-[(3-bromophenyl)amino]-7-((1-[(ethoxycarbonyl)methyl]-piperidin-4-yl)oxy)-6-[(vinylcarbonyl)amino]-quinazoline]"
3,8.06,"C=CC(=O)Nc1cc2c(Nc3cccc(Br)c3)ncnc2cc1OCCCN(C)CC(=O)OCC [1(13), 4-[(3-bromophenyl)amino]-7-(3-{N-[(ethoxycarbonyl)methyl]-N-methylamino)propyloxy)-6-[(vinylcarbonyl)amino]-quinazoline]"
4,8.05,"CCOC(=O)CN(C)CC=CC(=O)Nc1cc2c(N[C@H](C)c3ccccc3)ncnc2cc1OC [5(2), (R)-4-[(1-phenylethyl)amino]-6-[(4-(N-[(ethoxycarbonyl)methyl]-N-methylamino}-1-oxo-2-buten-1-yl)amino]-7-methoxy-quinazoline]"
5,8.74,"COc1cc2ncnc(Nc3cccc(Br)c3)c2cc1NC(=O)C=CCN(C)CC(OC)OC [5(8), 4-[(3-bromophenyl)amino]-6-({4-[N-(2,2-dimethoxyethyl)-N-methylamino]-1-oxo-2-buten-1-yl}amino)-7-methoxy-quinazoline]"
6,8.74,"CCOC1CN(CC=CC(=O)Nc2cc3c(Nc4cccc(Br)c4)ncnc3cc2OC)CCO1 (stereo not shown) [5(10), 4-[(3-bromophenyl)amino]-6-([4-(2-ethoxy-morpholin-4-yl)-1-oxo-2-buten-1-yl]amino)-7-methoxy-quinazoline]"
7,7.24,CCOC(=O)CCN(CC=CC(=O)Nc1cc2c(Nc3ccc(F)c(Cl)c3)ncnc2cc1OCC1CC1)CC(=O)OCC [5(22)]
8,6.96,"CCOC(=O)CN(CC=CC(=O)Nc1cc2c(Nc3ccc(F)c(Cl)c3)ncnc2cc1OCC1CC1)CCSC(C)=O [8(1), 4-[(3-chloro-4-fluorophenyl)amino]-6-[(4-(N-[(ethoxycarbonyl)methyl]-N-[2-(acetylsulphanyl)ethyl]amino)-1-oxo-2-buten-1-yl)amino]-7-cyclopropylmethoxy-quinazoline]"

# System: not given
# Assay: not given
# Settings: not given
row,SMILES,melting point
1,"CCOC1CN(CC=CC(=O)Nc2cc3c(Nc4cccc(Br)c4)ncnc3cc2OC)CC(OCC)O1 (stereo not shown) [Example 7, 4-[(3-bromophenyl)amino]-6-{[4-(2,6-diethoxy-morpholin-4-yl)-1-oxo-2-buten-1-yl]amino}-7-methoxy-quinazoline]",133 to 138 °C
2,"CC1(C)CN(CC=CC(=O)Nc2cc3c(Nc4ccc(F)c(Cl)c4)ncnc3cc2OCC2CC2)CC(=O)O1 [Example 10, 4-[(3-chloro-4-fluorophenyl)amino]-6-{[4-(2,2-dimethyl-6-oxo-morpholin-4-yl)-1-oxo-2-buten-1-yl]amino}-7-cyclopropylmethoxy-quinazoline]",140 to 142 °C
3,"O=C(C=CCN1CCN(CC(=O)OCc2ccccc2)CC1)Nc1cc2c(Nc3ccc(F)c(Cl)c3)ncnc2cc1OCC1CC1 [Example 12, 4-[(3-Chloro-4-fluoro-phenyl)amino]-6-[(4-{4-[(benzyloxycarbonyl)methyl]-piperazin-1-yl)-1-oxo-2-buten-1-yl}amino]-7-cyclopropylmethoxy-quinazoline]",174 °C
4,"CCOC(=O)C1CN(S(C)(=O)=O)CCN1CC=CC(=O)Nc1cc2c(Nc3ccc(F)c(Cl)c3)ncnc2cc1OCC1CC1 (stereo not shown) [Example 15, 4-[(3-Chloro-4-fluoro-phenyl)amino]-6-({4-[2-(ethoxycarbonyl)-4-(methylsulfonyl)-piperazin-1-yl]-1-oxo-2-buten-1-yl)amino)-7-cyclopropylmethoxy-quinazoline]",170 to 173 °C
5,"CCOC(=O)CCN1CCN(CC=CC(=O)Nc2cc3c(Nc4ccc(F)c(Cl)c4)ncnc3cc2OCC2CC2)CC1 [Example 16, 4-[(3-Chloro-4-fluoro-phenyl)amino]-6-[(4-{4-[2-(ethoxycarbonyl)-ethyl]-piperazin-1-yl}-1-oxo-2-buten-1-yl)amino]-7-cyclopropylmethoxy-quinazoline]",183 to 185 °C
6,"CCOC(=O)CN1CCN(C(C)(C)C=CC(=O)Nc2cc3c(Nc4ccc(F)c(Cl)c4)ncnc3cc2OCC2CC2)CC1 [Example 17, 4-[(3-Chloro-4-fluoro-phenyl)amino]-6-[(4,4-dimethyl-4-{4-[(ethoxycarbonyl)methyl]-piperazin-1-yl)-1-oxo-2-buten-1-yl)amino]-7-cyclopropylmethoxy-quinazoline]",165 to 167 °C
7,"CCOC(=O)C1CN(C(C)=O)CCN1CC=CC(=O)Nc1cc2c(Nc3ccc(F)c(Cl)c3)ncnc2cc1OCC1CC1 (stereo not shown) [Example 18, 4-[(3-Chloro-4-fluoro-phenyl)amino]-6-({4-[2-(ethoxycarbonyl)-4-(methylcarbonyl)-piperazin-1-yl]-1-oxo-2-buten-1-yl}amino)-7-cyclopropylmethoxy-quinazoline]",152 to 156 °C

# More lines, now with the values ahead:
row,melting point,SMILES
1,199 °C,"CCOC(=O)CN(C)CCCNC(=O)C=CC(=O)Nc1ccc2ncnc(Nc3cccc(Br)c3)c2c1 [Example 3, 4-[(3-Bromophenyl)amino]-6-{[4-(3-{N-[(ethoxycarbonyl)methyl]-N-methylamino)propylamino)-1,4-dioxo-2-buten-1-yl]amino}-quinazoline]"
2,110 to 114 °C,"CCOC(=O)CN(C)CC=CC(=O)Nc1cc2c(Nc3cccc(C)c3)ncnc2cc1OC [Example 5, 4-[(3-methylphenyl)amino]-6-[(4-{N-[(ethoxycarbonyl)methyl]-N-methylamino}-1-oxo-2-buten-1-yl)amino]-7-methoxy-quinazoline]"
3,140 °C (dec.),"C=CC(=O)Nc1cc2c(Nc3cccc(Br)c3)ncnc2cc1OCCCN1CCN(CC(=O)O)CC1 [Example 6, 4-[(3-Bromophenyl)amino]-7-{3-[4-(carboxymethyl)-piperazin-1-yl]propyloxy}-6-[(vinylcarbonyl)amino]-quinazoline]"
